Laboratory results: US6737383B1, “Herbicidal oxadiazolidines” (priority 1999, dated 2004)

What was measured:
[1] = tested on: wild oat; assay: Test E wild oat; type: in vivo, Avena fatua; conditions: Preemergence
[2] = tested on: morningglory; assay: Test B pre/postemergence morningglory; type: in vivo, Ipomoea hederacea
In short: (§1)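 Test chemicals in a non-phytotoxic solvent mixture with surfactant were sprayed preemergence onto planted seeds and postemergence onto plants 2 to 18 cm tall (1- to 4-leaf stage). After twelve to sixteen days in a greenhouse, injury was visually rated against untreated controls from 0 (no effect) to 10 (complete control).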

[3] = tested on: Italian ryegrass; assay: Test E Italian ryegrass; type: in vivo, Lolium multiflorum; conditions: Preemergence
[4] = tested on: blackgrass; assay: Test E blackgrass; type: in vivo, Alopecurus myosuroides; conditions: Preemergence
[5] = tested on: winter wheat; assay: Test E winter wheat; type: in vivo, Triticum aestivum; conditions: Postemergence
In short: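 Compound formulated with surfactant in a non-phytotoxic solvent (postemergence: young 1- to 4-leaf plants); held in greenhouse approx. 21–28 days; visual assessment against untreated plants.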

[6] = tested on: pigweed; assay: Test B pre/postemergence pigweed; type: in vivo, Amaranthus retroflexus
In short: as §1

[7] = tested on: green foxtail; assay: Test E green foxtail; type: in vivo, Setaria viridis; conditions: Preemergence
[8] = tested on: winter barley; assay: Test E winter barley; type: in vivo, Hordeum vulgare; conditions: Preemergence
[9] = tested on: winter wheat; assay: Test E winter wheat; type: in vivo, Triticum aestivum; conditions: Preemergence
[10] = tested on: wild oat; assay: Test B pre/postemergence wild oat; type: in vivo, Avena fatua
In short: as §1

[11] = Rate 500 g/ha, 0 to 100 scale where 0 is no effect and 100 is complete control
[12] = Rate 1000 g/ha, 0 to 100 scale where 0 is no effect and 100 is complete control
[13] = Postemergence, Rate 62 g/ha, scale 0 to 10, 0 is no effect, 10 is complete control
[14] = Postemergence, Rate 250 g/ha, scale 0 to 10, 0 no effect, 10 complete control
[15] = Preemergence, Rate 62 g/ha, scale 0 to 10, 0 is no effect, 10 is complete control
[16] = Preemergence, Rate 125 g/ha, scale 0 to 10 (0 no effect, 10 complete control)
[17] = Preemergence, Rate 250 g/ha, scale of 0 to 10 where 0 is no effect and 10 is complete control
[18] = Preemergence, Rate 500 g/ha, scale 0 (no effect) to 10 (complete control)
[19] = Rate 125 g/ha, Postemergence, scale 0 to 10, 0 no effect, 10 complete control
[20] = Rate 500 g/ha, Postemergence, 0 to 10 scale (0 no effect, 10 complete control)
[21] = Rate 250 g/ha, 0 to 100 scale (0 no effect, 100 complete control)
[22] = Rate 500 g/ha, 0 to 100 scale, 0 no effect, 100 complete control
[23] = Rate 125 g/ha, 0 to 100 scale (0 no effect, 100 complete control)

Cc1ccc(N(C(=O)n2oc(=O)n(-c3ccccc3C)c2=O)C(C)C)cc1 [Compound 40]
Plant response rating, Wild oat [1, 11]: 50
Plant response rating, Wild oat [1, 12]: 60
Morningglory plant response rating [2, 13]: 3
Morningglory plant response rating [2, 14]: 6
Plant response rating, Morningglory [2, 15]: 0
Plant response rating, Morningglory [2, 16]: 0
Plant response rating, Morningglory [2, 17]: 0
Morningglory plant response rating [2, 18]: 0
Morningglory plant response rating [2, 19]: 6
Morningglory plant response rating [2, 20]: 7
Plant response rating, I. Ryegrass ([3]; Rate 250 g/ha, 0 to 100 scale): 30
Plant response rating, I. Ryegrass [3, 11]: 70
Plant response rating, I. Ryegrass [3, 12]: 70
Plant response rating, Blackgrass ([4]; Rate 250 g/ha, 0 to 100 scale): 40
Plant response rating, Blackgrass [4, 11]: 60
Plant response rating, Blackgrass [4, 12]: 70
Plant response rating, Wheat (winter) [5, 21]: 0
Plant response rating, Wheat (winter) ([5]; Rate 1000 g/ha, 0 to 100 scale, 0 is no effect and 100 is complete control): 0
Plant response rating, Wheat (winter) [5, 22]: 0
Redroot pigweed plant response rating [6, 13]: 0
Redroot pigweed plant response rating [6, 14]: 2
Plant response rating, Redroot pigweed [6, 15]: 0
Plant response rating, Redroot pigweed [6, 16]: 1
Plant response rating, Redroot pigweed [6, 17]: 4
Redroot pigweed plant response rating [6, 18]: 6
Redroot pigweed plant response rating [6, 19]: 1
Plant response rating, Green foxtail ([7]; Rate 250 g/ha, 0 to 100 scale): 70
Plant response rating, Green foxtail [7, 11]: 90
Plant response rating, Green foxtail [7, 12]: 90
Plant response rating, Barley (winter) ([8]; Rate 250 g/ha, 0 to 100 scale): 30
Plant response rating, Barley (winter) [8, 11]: 40
Plant response rating, Barley (winter) [8, 12]: 50
Plant response rating, Wheat (winter) ([9]; Rate 250 g/ha, 0 to 100 scale): 20
Plant response rating, Wheat (winter) [9, 11]: 30
Plant response rating, Wheat (winter) [9, 12]: 40
Wild oats plant response rating [10, 13]: 0
Wild oats plant response rating [10, 14]: 0
Plant response rating, Wild oats [10, 16]: 0
Plant response rating, Wild oats [10, 17]: 0
Wild oats plant response rating [10, 18]: 5
Wild oats plant response rating [10, 19]: 0

CC(C)N(C(=O)n1oc(=O)n(-c2ccccc2)c1=O)c1ccc(F)cc1 [Compound 38]
Plant response rating, Wild oat [1, 23]: 0
Plant response rating, Wild oat [1, 11]: 20
Morningglory plant response rating [2, 13]: 0
Morningglory plant response rating [2, 14]: 1
Plant response rating, Morningglory [2, 15]: 0
Plant response rating, Morningglory [2, 16]: 0
Plant response rating, Morningglory [2, 17]: 0
Morningglory plant response rating [2, 18]: 0
Morningglory plant response rating [2, 19]: 0
Morningglory plant response rating [2, 20]: 10
Plant response rating, I. Ryegrass [3, 23]: 0
Plant response rating, I. Ryegrass ([3]; Rate 250 g/ha, 0 to 100 scale): 20
Plant response rating, I. Ryegrass [3, 11]: 80
Plant response rating, Blackgrass [4, 23]: 25
Plant response rating, Blackgrass ([4]; Rate 250 g/ha, 0 to 100 scale): 45
Plant response rating, Blackgrass [4, 11]: 35
Plant response rating, Wheat (winter) ([5]; Rate 125 g/ha, 0 to 100 scale): 10
Plant response rating, Wheat (winter) [5, 21]: 10
Plant response rating, Wheat (winter) [5, 22]: 10
Redroot pigweed plant response rating [6, 13]: 0
Redroot pigweed plant response rating [6, 14]: 0
Plant response rating, Redroot pigweed [6, 15]: 2
Plant response rating, Redroot pigweed [6, 16]: 10
Plant response rating, Redroot pigweed [6, 17]: 10
Redroot pigweed plant response rating [6, 18]: 10
Redroot pigweed plant response rating [6, 19]: 0
Redroot pigweed plant response rating [6, 20]: 0
Plant response rating, Green foxtail [7, 23]: 80
Plant response rating, Green foxtail ([7]; Rate 250 g/ha, 0 to 100 scale): 90
Plant response rating, Green foxtail [7, 11]: 100
Plant response rating, Barley (winter) [8, 23]: 0
Plant response rating, Barley (winter) ([8]; Rate 250 g/ha, 0 to 100 scale): 0
Plant response rating, Barley (winter) [8, 11]: 0
Plant response rating, Wheat (winter) [9, 23]: 10
Plant response rating, Wheat (winter) ([9]; Rate 250 g/ha, 0 to 100 scale): 0
Plant response rating, Wheat (winter) [9, 11]: 10
Wild oats plant response rating [10, 13]: 0
Wild oats plant response rating [10, 14]: 0
Plant response rating, Wild oats [10, 16]: 6
Plant response rating, Wild oats [10, 17]: 6
Wild oats plant response rating [10, 18]: 8
Wild oats plant response rating [10, 19]: 0
